For one experiment, the system named is p38. Particulars: DHER14 cells exposed to cisplatin (CDDP, 30 μM).
Experiment [1] relates to reactive oxygen species (ROS) in DHER14 cells. Nature of the experiment: Inhibition of ROS production, fluorescent dye DHDCF. It is filed as cell-based. As for the experimental part: FIG. 3 represents cellular ROS levels as determined using a fluorescence assay in the presence of CB, NOXi and NAC antioxidants.
The concentration of reactive oxygen species (ROS) in DHER14 cells following administration of antioxidants was determined using the ROS sensitive fluorescent dye DHDCF (fluoresceine derivative). […] The efficacy of CB in reducing ROS was about ˜50 fold better then these two known antioxidants.

The subject of experiment [2] is JNK (c-Jun NH2-terminal kinase). Particulars: DHER14 cells exposed to cisplatin (CDDP, 30 μM).
Protocol: (§1) In order to show the efficacy of CB against a stimulant that activates oxidative stress, an inhibition assay of both JNK (c-Jun NH2-terminal kinase) and p38 enzymes in tissue culture was performed.
(§2) NIH3T3 cells overexpressing EGF receptor (DHER14 cells) (55) were exposed to cisplatin (CDDP, 30 μM) which activates specific enzymes involved in apoptosis including JNK and p38.
(§3) Two known antioxidants were used as positive controls, NOXi (at 300 and 1000 μM) and NAC (NAC) (at 1000 μM).
Where [3] appears, read: 20 μM, detected by specific antibodies.

Protocol for p38: as §1, §2, §3

On to `CC(=O)N[C@@H](CS)C(=O)O` [NAC, N-acetyl cysteine, reference compound], for which the “efficacy against p38 phosphorylation compared with CB at 20 μM” value in the experiment with p38 (1 mM) is “similar”. Also, the “efficiency in reducing ROS compared with CB at 20 μM” value in experiment [1] (1000 μM) is “as efficient as”. Moreover, the “efficacy against JNK phosphorylation compared with CB at 20 μM” value in experiment [2] (1 mM) was “similar”.
With “N-Acetyl Cysteine-Glycine-Proline-Cysteine-Amid [CB]”, in the experiment on p38 (setting [3]), the “phosphorylated p38” value is “not detected at all”. The “phosphorylated form of p38” value with p38 (increasing concentrations) is “dramatic reduction”. Also, the ROS level entry in experiment [1] (20 μM) is recorded as “reduction of ROS below normal levels was prominent”. Moreover, the “efficacy in reducing ROS relative to NOXi and NAC” value in experiment [1] (CB 20 μM versus 1000 μM NAC or 1000 μM NOXi) is listed as ~50 fold. Besides, the “phosphorylated JNK” value in experiment [2] (setting [3]) was “not detected at all”. The “phosphorylated form of JNK” value in experiment [2] (increasing concentrations) is on record as “dramatic reduction”.

Source of the values: patent US8530407B2, “Multi-component antioxidant compounds, pharmaceutical compositions containing same and their use for reducing or preventing oxidative stress” (Yissum Research Development Company of the Hebrew …, priority 2000, dated 2013).
